Target: T1, cathepsin B (Homo sapiens, UniProt P07858)
T1 construct: purchased CalBiochem
Assay: Cathepsin B cleavage of 7A and 7B
Type: biochemical
Conditions: substrate 100 μM, activated cathepsin B 100 nM, 50 mM sodium acetate buffer pH 5, 37° C., 16 hrs, presence or absence of 1 mM cysteine; HPLC
Method: Model compounds with a cleavable peptide unit and a heterocyclic self-immolative moiety, and conjugates of Formula I can be tested for stability and kinetics of enzymatic hydrolysis by the methods of de Groot, et al (1999) J. Med. Chem. 42(25):5277-5283.
FIG. 2 is a schematic representation of the cleavage mechanism.
A cathepsin B (CalBiochem) stock solution at 28.4 μM was diluted to 1 μM in 50 mM sodium acetate buffer pH 7.5, containing 2 mM DTT. Activation was carried out at 37° C. for 15 minutes.
Substrate compounds 7A and 7B were diluted to 100 μM in 50 mM sodium acetate buffer pH 5. Activated cathepsin B was added to a final concentration of 100 nM and the cleavage reaction was carried out at 37° C. for 16 hrs in the presence or absence of 1 mM cysteine.
Reversed-phase separation of cleavage products was carried out using an Agilent 1100 HPLC system. UV signal was monitored at 214, 254 and 380 nm. A Poroshell 300SB-C18 column (No.660750-902) from Agilent was used. Mobile phases A and B contained 0.05% TFA aqueous solution and CH3CN containing 0.05% TFA, respectively. […] The cleavage product of 4-nitroaniline was monitored by its distinct absorbance at 380 nm in the void volume. […]

Structure (SMILES)	cleavage reaction (disappearance of substrate, release of 4-nitroaniline)
CC(C)[C@@H](NC(=O)OC(C)(C)C)C(=O)N[C@H](CCCNC(N)=O)C(=O)Nc1nc(C(F)(F)F)c(COC(=O)Nc2ccc([N+](=O)[O-])cc2)s1 [Compound 7A]	complete
CC(C)[C@@H](NC(=O)CCCCCN1C(=O)C=CC1=O)C(=O)N[C@H](CCCNC(N)=O)C(=O)Nc1nc(C(F)(F)F)c(COC(=O)Nc2ccc([N+](=O)[O-])cc2)s1 [Compound 7B]	complete
